The subject of one data set is domestic cats. To be noted: 48 to 50 mg per capita (averaging 10 to 14 mg/kg), one hour after administration.
In another data set the test system is White Mice. The experiment in a line: Acute oral toxicity testing, intragastric administration (Miller and Tainter). Conditions: for % of deaths / Number of Animals dead: 10 per group, 14 days follow-up.
The test system of the next data set is male cats. The source says: The trials enrolled apparently healthy entire animals (8 male cats and 8 female cats) aged 2 to 6 years, weighing 3 to 4 kg, kept in foster care at BIM Animal Shelter. The females were introduced into the study as they went into estrus. Table XII. Registration details of the cats enrolled in the experiment
Male cats with pronounced signs of heat were placed in individual cages in a dedicated room where 2 female cats in heat were present (in separate cages in the same room). TR Succinate in the tablet form (for the experimental animals) and placebo tablets (for the control animals) were given in accordance with the same design as in the experiment with female cats. Follow-up observation over the animals was carried out in a similar manner.

The test system of a further data set is female cats. As to the kind of experiment: Suppression of behavioral signs of heat in female cats.
A further data set concerns White Rats. As to the kind of experiment: Acute oral toxicity testing, intragastric administration (Miller and Tainter). To be noted: for % of deaths / Number of Animals dead: 10 per group, 14 days follow-up.
The conditions of data set [1]: in vivo; cited from earlier work.
Where [2] appears, read: substance, intragastric, in 1% starch gel.
Setting [3] is: substance, intragastric, in 1% starch gel, 20160 min.
Where [4] appears, read: one 100 mg tablet (24 mg active ingredient, 6-8 mg/kg) oral, individual male cats.
Where [5] appears, read: female and male cats in heat, single dose 6-8 mg/kg.
Setting [6] is: one 100 mg tablet (24 mg active ingredient, 6-8 mg/kg) oral, individual female cats.

Where “and” joins values, the source holds several entries; their conditions need not be identical. Equal values may be shown once. Where a name gives a salt, the structure may show the parent alone.

The values that follow come from patent EP3922250A1, “COMPOSITION FOR CORRECTING THE BEHAVIOUR OF CATS AND DOGS” (priority 2019, dated 2021).

Method for White Mice: (§1) This parameter was evaluated on mice and rats in accordance with a conventional procedure for acute toxicity testing of medicinal products (Example 2).
(§2) In each case, 7 experimental groups and 1 control group of white rats and 7 experimental and 1 control groups of white mice, 10 individuals in each, were formed. The product was administered via an intragastric tube in accordance with the design described in Table I. 1% starch gel was used as the suspending agent.
(§3) Follow-up period was 14 days. The observation included general condition, behavior, feed and water intake, manifestation of intoxication symptoms, possible deaths.
Method for White Rats: as §1, §2, §3
From the text for domestic cats: Based on the data obtained by observing animals under stress, the most frequent symptoms of anxiety and fear common to various stressful situations were selected to assess the severity of their abnormal behavior. They included vocalizing, hypersalivation, overgrooming, abnormal (higher or lower) motion activity, soiling (urination and/or defecation), and 'destructive behavior' consisting in signs of aggression, attempts at damaging ambient objects, etc. For each symptom (based on its severity), points from 0 to 2 were given, which subsequently were totalized individually for each animal or, where appropriate, for a whole group of animals to determine an average value.
For each of the 6 symptoms (based on its severity), points from 0 to 2 were given, which subsequently were totalized individually for each animal. Therein, a total score of more than 6 points (out of possible 12) was considered to be indicative of an apparent severity of abnormal (changed) behavior.
To carry out the experiment, 6 domestic cats of different sex and age, weighing 3.5 to 5 kg, were selected, who, according to their owners, felt bad during transportation, showing various forms of abnormal behavior. Herein, the actual presence of stress symptoms and their severity for each cat were assessed from video data provided by their owners. […]

In the case of Trazodone Succinate, the “sedative action onto the animals” value with domestic cats is “pronounced sedative actions of comparable efficacy”. Also, the “% of deaths” value in the data set on White Mice (400 mg/kg intragastric) worked out at 0%; in the data set with White Mice (800 mg/kg intragastric), 10.0%; with White Mice (1600 mg/kg intragastric), 70.0%; in the data set with White Mice (2000 mg/kg intragastric), 100.0%; in the data set on White Mice (2500 mg/kg intragastric) it was 100.0%; with White Mice (3000 mg/kg intragastric) it was 100.0%. The “% of deaths” value came to 0% in the data set on White Rats (400 mg/kg intragastric); 20.0% in the data set with White Rats (800 mg/kg intragastric); 40.0% in the data set with White Rats (1600 mg/kg intragastric); 70.0% in the data set with White Rats (2700 mg/kg intragastric); 100.0% in the data set on White Rats (3000 mg/kg intragastric); 100.0% in the data set with White Rats (3500 mg/kg intragastric). Moreover, the “Number of Animals dead” value in the data set with White Mice (400 mg/kg intragastric) amounted to 0; with White Mice (800 mg/kg intragastric) it was 1; in the data set on White Mice (1600 mg/kg intragastric) it was 7; in the data set on White Mice (2000 mg/kg intragastric), 10; in the data set on White Mice (2500 mg/kg intragastric) it was 10; in the data set on White Mice (3000 mg/kg intragastric), 10. Also, the “Number of Animals dead” value is listed as 0 with White Rats (400 mg/kg intragastric); 2 with White Rats (800 mg/kg intragastric); 4 with White Rats (1600 mg/kg intragastric); 7 with White Rats (2700 mg/kg intragastric); 10 in the data set with White Rats (3000 mg/kg intragastric); 10 in the data set with White Rats (3500 mg/kg intragastric). In addition, in the data set on White Mice (classified from the LD50 values in mice and rats), the “Hazard class according to GOST 12.1.007-76” value is listed as “Hazard Class III”. The LD16 in the data set on White Mice (setting [2]) came out at 840 mg/kg; in the data set on White Rats (setting [2]), 760 mg/kg. For the same compound, the results for the LD84 with White Mice (setting [2]) and in the data set on White Rats (setting [2]) were 1690 mg/kg and 2730 mg/kg, respectively. The LD100 is reported as 1935 mg/kg in the data set with White Mice (setting [2]) and 2945 mg/kg in the data set with White Rats (setting [2]). For the same compound, the results for the LD50 with White Mice (setting [3]) and with White Rats (setting [3]) were 1200 (1091.6-1308.4) mg/kg and 2300 (2079.5-2520.5) mg/kg, respectively. Also, the MTD in the data set with White Mice (setting [3]) and in the data set with White Rats (setting [3]) was 400 mg/kg in each case. Also, the abnormal behaviors result with male cats (in vivo) is on record as “no abnormal behaviors were observed”. Also, the “Total intensity of heat signs after the product administration (points) after 30 minutes” value in the data set on male cats (setting [4]) was 5 points (3×) and 6 points and 4 points (2×); in the data set on female cats (setting [6]), 5 points (3×) and 6 points and 4 points (2×). Also, the “Total intensity of heat signs after the product administration (points) after 3 hours” value in the data set with male cats (setting [4]) is 1 points (4×) and 2 points (2×); with female cats (setting [6]), 1 points (5×) and 2 points. The “Total intensity of heat signs after the product administration (points) after 6 hours” value with male cats (setting [4]) is 2 points (4×) and 1 points (2×); in the data set with female cats (setting [6]), 2 points (4×) and 1 points (2×). Moreover, in the data set on female cats (experimental group female cats, during the experiment), the “side effects, such as pronounced hypnotic action, atony, slowness or dystaxia” value is listed as “No side effects”. Also, the “start of the sedative action after the product administration” value with female cats (setting [5]) is 30 min. In addition, the “time the sedative action remained” value with female cats (setting [5]) is listed as “at least 6 hours”. Further, the “time to maximum sedative action (substantially complete disappearance of estrous behavior signs)” value in the data set with female cats (setting [5]) is 1 h. Besides, the “Total intensity of heat signs after the product administration (points) after 1 hour” value in the data set on female cats (setting [6]) is 0 points (4×) and 1 points (2×). The “Total intensity of heat signs after the product administration (points) after 8 hours” value in the data set with female cats (setting [6]) is 4 points (2×) and 1 points (3×) and 5 points.

Take `O=c1n(CCCN2CCN(c3cccc(Cl)c3)CC2)nc2ccccn12` [TR, Trazodone]: in data set [1], the “amount of plasma protein binding” value is listed as 89-95%, the “excreted from the body via the kidneys” value is listed as 75%, the “excreted unchanged with bile” value is given as “about 20%” and the “time to reach complete excretion of the substance” value was 98 h.

Turning to `O=c1n(CCCN2CCN(c3cccc(Cl)c3)CC2)nc2ccccn12` [Trazodone Hydrochloride, reference compound], the “sedative action onto the animals” value in the data set on domestic cats was “pronounced sedative actions of comparable efficacy”.
